Reference: the CheMixHub ionic liquid set
± gives the uncertainty stated by the source.

Experiment: xn = mol fraction of the nth substance listed

CCCCCC[n+]1ccn(C)c1.O=S(=O)([N-]S(=O)(=O)C(F)(F)F)C(F)(F)F + CO
298.15 K, 100 kPa
Conditions | electrical conductivity [S/m]
x1 = 0.02978 | 1.7 ± 0.2
x1 = 0.04557 | 2.1 ± 0.2
x1 = 0.06683 | 2.3 ± 0.2
x1 = 0.09663 | 2.2 ± 0.2
x1 = 0.1426 | 1.9 ± 0.2

CC[n+]1ccn(C)c1.COS(=O)(=O)[O-] + O
101 kPa
Conditions | viscosity [mPa·s]
288.15 K, x2 = 0.0023 | 137.7 ± 2.4
288.15 K, x2 = 0.8948 | 4.861 ± 0.039
298.15 K, x2 = 0.0023 | 83.9 ± 1.2
298.15 K, x2 = 0.0887 | 80.2 ± 1
308.15 K, x2 = 0.2235 | 42.26 ± 0.46
308.15 K, x2 = 0.4163 | 24.36 ± 0.24
308.15 K, x2 = 0.8948 | 2.817 ± 0.023
318.15 K, x2 = 0.0023 | 37.81 ± 0.48
328.15 K, x2 = 0.0023 | 27.34 ± 0.34
338.15 K, x2 = 0.4163 | 10.89 ± 0.11
338.15 K, x2 = 0.6106 | 5.924 ± 0.053

CCCCCCCCOS(=O)(=O)[O-].CC[n+]1ccn(C)c1 + O
101 kPa, frequency 0.0005 MHz
Conditions | electrical conductivity [S/m]
263.15 K, x2 = 0.8103 | 0.26 ± 0.016
288.15 K, x2 = 0.7822 | 0.678 ± 0.041
298.15 K, x2 = 0.8236 | 1.14 ± 0.069
303.15 K, x2 = 0.8236 | 1.32 ± 0.08
303.15 K, x2 = 0.8384 | 1.52 ± 0.092
313.15 K, x2 = 0.8103 | 1.65 ± 0.099
323.15 K, x2 = 0.8236 | 2.2 ± 0.13
333.15 K, x2 = 0.7822 | 2.4 ± 0.14
333.15 K, x2 = 0.8236 | 2.77 ± 0.17
343.15 K, x2 = 0.7822 | 2.9 ± 0.17

101 kPa
Conditions | viscosity [mPa·s]
298.15 K, x2 = 0.8236 | 63.5 ± 1.4
303.15 K, x2 = 0.8236 | 48.9 ± 1.1
303.15 K, x2 = 0.8384 | 46 ± 1
313.15 K, x2 = 0.8103 | 32.07 ± 0.71
333.15 K, x2 = 0.7822 | 15.7 ± 0.35
343.15 K, x2 = 0.7822 | 11.31 ± 0.25

CCCCCC[n+]1ccn(C)c1.O=S(=O)([N-]S(=O)(=O)C(F)(F)F)C(F)(F)F + CC(C)O
viscosity [mPa·s], 100 kPa
Conditions | x2 = 0 | x2 = 0.0845 | x2 = 0.2111 | x2 = 0.3269 | x2 = 0.4529 | x2 = 0.5435 | x2 = 0.637 | x2 = 0.7321 | x2 = 0.8285 | x2 = 0.9173
293.15 K | 85.2 ± 8.6 | 73.5 ± 7.4 | 57 ± 5.7 | 42.3 ± 4.3 | 29.9 ± 3 | 22.4 ± 2.2 | 16.2 ± 1.6 | 12 ± 1.2 | 8.01 ± 0.81 | 4.5 ± 0.46
298.15 K | 65.9 ± 6.6 | 56.6 ± 5.7 | 44.5 ± 4.5 | 34.1 ± 3.4 | 24.2 ± 2.4 | 18.8 ± 1.9 | 13.6 ± 1.4 | 9.86 ± 0.99 | 6.52 ± 0.66 | 3.73 ± 0.38
303.15 K | 51.9 ± 5.2 | 45 ± 4.5 | 36.5 ± 3.7 | 28.6 ± 2.9 | 20.2 ± 2 | 15.6 ± 1.6 | 11.4 ± 1.1 | 8.26 ± 0.83 | 5.51 ± 0.56 | 3.24 ± 0.33
308.15 K | 41.4 ± 4.2 | 36 ± 3.6 | 30.5 ± 3.1 | 24.1 ± 2.4 | 17.2 ± 1.7 | 13.2 ± 1.3 | 9.62 ± 0.97 | 7.11 ± 0.71 | 4.67 ± 0.47 | 2.82 ± 0.29
313.15 K | 33.8 ± 3.4 | 30.5 ± 3.1 | 25.6 ± 2.6 | 20.6 ± 2.1 | 14.9 ± 1.5 | 11.3 ± 1.1 | 8.31 ± 0.84 | 6.06 ± 0.61 | 3.98 ± 0.4 | 2.41 ± 0.24

CCCC[n+]1ccn(C)c1.COS(=O)(=O)[O-] + CCCC[n+]1ccn(C)c1.F[B-](F)(F)F
101 kPa
Conditions | viscosity [mPa·s]
298.15 K, x2 = 0.4358 | 161.7 ± 6.9
298.15 K, x2 = 0.5118 | 158.9 ± 6.4
298.15 K, x2 = 0.6026 | 146.2 ± 5.5
298.15 K, x2 = 0.9447 | 110.8 ± 3.4
299.15 K, x2 = 0 | 202.9 ± 9.9
299.15 K, x2 = 0.1209 | 181.8 ± 8.2
301.15 K, x2 = 0.1209 | 162.8 ± 6.8
301.15 K, x2 = 0.2142 | 158.7 ± 6.5
301.15 K, x2 = 0.4358 | 136.4 ± 4.9
301.15 K, x2 = 0.6934 | 117 ± 3.6
301.15 K, x2 = 0.7813 | 109.5 ± 3.2
302.15 K, x2 = 0 | 171.4 ± 7.4
302.15 K, x2 = 0.3057 | 144.1 ± 5.4
302.15 K, x2 = 0.5412 | 122.2 ± 3.9
302.15 K, x2 = 0.6026 | 117.5 ± 3.7
302.15 K, x2 = 0.648 | 113.8 ± 3.4
303.15 K, x2 = 0.406 | 127.9 ± 4.3
303.15 K, x2 = 0.5118 | 118.6 ± 3.7
304.15 K, x2 = 0.3057 | 129.6 ± 4.4
304.15 K, x2 = 0.5412 | 109.7 ± 3.2
304.15 K, x2 = 0.6934 | 99.9 ± 2.6
305.15 K, x2 = 0.1209 | 131.1 ± 4.5
305.15 K, x2 = 0.2142 | 127.8 ± 4.3
305.15 K, x2 = 0.6026 | 100.3 ± 2.6
305.15 K, x2 = 0.9005 | 82.8 ± 1.7
305.15 K, x2 = 0.9447 | 78.2 ± 1.6
307.15 K, x2 = 0.4358 | 99.4 ± 2.6
307.15 K, x2 = 0.6026 | 90.9 ± 2.2
308.15 K, x2 = 0.1209 | 112.4 ± 3.2
308.15 K, x2 = 0.406 | 98.7 ± 2.7
308.15 K, x2 = 0.9447 | 68 ± 1.1

CCCCCC[n+]1ccn(C)c1.O=S(=O)([N-]S(=O)(=O)C(F)(F)F)C(F)(F)F + CN(C)C=O
298.15 K, 100 kPa
Conditions | electrical conductivity [S/m]
x1 = 0.06572 | 0.9 ± 0.1
x1 = 0.09821 | 1.1 ± 0.1
x1 = 0.1404 | 1.2 ± 0.1
x1 = 0.1968 | 1.4 ± 0.2
x1 = 0.275 | 1.2 ± 0.1

CC[n+]1ccn(C)c1.COS(=O)(=O)[O-] + CCO
viscosity [mPa·s], 101 kPa
Conditions | 283.15 K | 293.15 K | 303.15 K | 313.15 K | 323.15 K
x1 = 0.0561 | 2.15 ± 0.07 | 1.77 ± 0.07 | 1.48 ± 0.07 | 1.24 ± 0.07 | 1.04 ± 0.07
x1 = 0.112 | 2.99 ± 0.07 | 2.44 ± 0.07 | 2.02 ± 0.07 | 1.7 ± 0.07 | 1.44 ± 0.07
x1 = 0.213 | 5.56 ± 0.08 | 4.37 ± 0.08 | 3.53 ± 0.07 | 2.81 ± 0.07 | 2.36 ± 0.07
x1 = 0.3285 | 9.85 ± 0.1 | 7.62 ± 0.09 | 6.01 ± 0.08 | 4.85 ± 0.08 | 3.98 ± 0.07
x1 = 0.356 | 11.14 ± 0.44 | 8.61 ± 0.1 | 6.78 ± 0.09 | 5.44 ± 0.08 | 4.44 ± 0.08
x1 = 0.525 | 23.46 ± 0.47 | 17.1 ± 0.45 | 12.99 ± 0.44 | 10.15 ± 0.44 | 8.15 ± 0.09
x1 = 0.632 | 38.01 ± 0.53 | 26.49 ± 0.48 | 19.73 ± 0.46 | 14.91 ± 0.44 | 11.58 ± 0.44
x1 = 0.7294 | 55 ± 1.9 | 36.84 ± 0.52 | 26.04 ± 0.48 | 19.5 ± 0.46 | 15 ± 0.44
x1 = 0.8202 | 76.5 ± 2.2 | 49.25 ± 0.59 | 33.81 ± 0.51 | 24.48 ± 0.47 | 18.59 ± 0.45
x1 = 0.9108 | 106.9 ± 3.2 | 66 ± 2 | 43.92 ± 0.57 | 30.93 ± 0.5 | 22.87 ± 0.47
x1 = 0.9556 | 124.7 ± 4 | 75.7 ± 2.2 | 49.57 ± 0.61 | 34.48 ± 0.52 | 25.22 ± 0.48
x1 = 1 | 141 ± 5 | 84.1 ± 2.4 | 57.9 ± 2 | 39.54 ± 0.55 | 28.33 ± 0.49

CCCCCC[n+]1ccn(C)c1.[Br-] + NC(N)=O + O
298.15 K, 100 kPa
Conditions | viscosity [mPa·s]
x2 = 0, x3 = 0.9008 | 6.89 ± 0.35
x2 = 0, x3 = 0.9487 | 2.88 ± 0.15
x2 = 0.008076, x3 = 0.8927 | 6.77 ± 0.34
x2 = 0.008492, x3 = 0.9402 | 2.97 ± 0.15
x2 = 0.01609, x3 = 0.8847 | 6.7 ± 0.34
x2 = 0.01695, x3 = 0.9318 | 2.98 ± 0.15
x2 = 0.02496, x3 = 0.9237 | 2.95 ± 0.15
x2 = 0.02678, x3 = 0.9219 | 2.96 ± 0.15
x2 = 0.03154, x3 = 0.8693 | 6.78 ± 0.34
x2 = 0.03322, x3 = 0.9155 | 2.98 ± 0.15
x2 = 0.03874, x3 = 0.8621 | 6.76 ± 0.34
x2 = 0.0408, x3 = 0.9079 | 3.02 ± 0.16

CCC[N+]1(C)CCCC1.N#C[N-]C#N + CCC[N+]1(C)CCCC1.O=S(=O)([N-]S(=O)(=O)C(F)(F)F)C(F)(F)F
333.15 K, 101 kPa
Conditions | electrical conductivity [S/m] | viscosity [mPa·s]
x1 = 0.25 | 1.38 ± 0.14 | 16.8 ± 1.7
x1 = 0.75 | 2.72 ± 0.27 | 13.2 ± 1.4

CCCCCC[n+]1ccn(C)c1.O=S(=O)([N-]S(=O)(=O)C(F)(F)F)C(F)(F)F + CC(C)=O
298.15 K, 100 kPa
Conditions | electrical conductivity [S/m]
x1 = 0.0527 | 2.6 ± 0.3
x1 = 0.07996 | 3.1 ± 0.3
x1 = 0.1149 | 3.1 ± 0.3
x1 = 0.163 | 2.4 ± 0.2
x1 = 0.2325 | 2 ± 0.2
